In US20090247520A1, “INHIBITORS OF ANTIGEN RECEPTOR-INDUCED NF-kappa B ACTIVATION” (The Burnham Institute for Medical Research, priority 2008, published 2009):
“Also recorded” adds a separate entry of the source.

How the values were obtained:
[1] = system: CD4-TLR4 induced NF-κB reporter gene activity; test: NF-κB reporter in HEK293-NF-κB-luc cells transfected with CD4-TLR4; assay type: cell-based; conditions: CID-2858522 4 μM, IKK inhibitor 10 μM, PKC inhibitor 1 μM
Procedure: (§1) FIGS. 3 (A-F) HEK293-NF-κB-luc cells were pretreated with CID-2858522 (4 μM), IKK inhibitor, BMS-335541 (10 μM), or PKC inhibitor, Bisindolylmaleimide I (1 μM) for 2 hrs and then transfected with plasmids encoding CD4/TLR4 (A), CD40 (B), NOD1 (C), NOD2 (D), cIAP2-MALT1 (E), or XIAP and TAB (F), or pcDNA as control (compounds were not removed). After 48 hrs, luciferase activity was measured expressing data as fold increase relative to unstimulated cells (mean±SD; n=3). (G-H) HEK293-NF-κB-luc cells were pretreated with CID-2858522 (4 μM), or IKK inhibitor, BMS-335541 (10 μM) for 2 hrs and then cultured with 2 μM doxorubicin (G) or 16 μM retinoic acid (H). After 48 hrs, luciferase activity was measured as above.
Counter Screening and Secondary Assays. To counter-screen for inhibitors of the TNF pathway, HEK293-NFκB-Luc cells were seeded at 10^5 cells per well in 90 μL medium in white 96-well plates (Greiner Bio-One) and cultured overnight, before adding compounds (5 μL in medium) to cells. […] Luciferase activity was measured using Britelite kit (Perkin Elmer). […] Cells were cultured in medium containing CID-2858522 or other compounds and luciferase activity was measured 48 h later. […] Reactions were then initiated by addition of 50 μL 160 nM ATP (Sigma) in PBS and luciferase activity was measured 2 h later using a luminometer (LJL Biosystems, Sunnyvale, Calif.).

[2] = system: cIAP2/MALT oncoprotein induced NF-κB activation; test: NF-κB reporter in 293-NF-κB-luciferase cells transfected with cIAP2/MALT; assay type: cell-based; conditions: CID-2858522 4 μM, IKK inhibitor 10 μM
Procedure: as §1
(§2) Counter Screening and Secondary Assays. To counter-screen for inhibitors of the TNF pathway, HEK293-NFκB-Luc cells were seeded at 10^5 cells per well in 90 μL medium in white 96-well plates (Greiner Bio-One) and cultured overnight, before adding compounds (5 μL in medium) to cells. After 2 h incubation, 5 μL TNF (200 ng/mL) (R&D Systems) was added (final concentration 10 ng/mL) and cells were incubated for 16 h. Luciferase activity was measured using Britelite kit (Perkin Elmer). To counter-screen for inhibitors of NF-κB induced by TLR4, CD40, NOD1, NOD2, cIAP2/MALT, or XIAP/TAB, the 293-NF-κB-luc cells cultured in 96 well plates as above were pretreated with compounds for 2 h and then transfected using Lipofectamine 2000 with various plasmids including pcDNA3 (“empty vector” control) or plasmids encoding CD4-TLR4, CD40, NOD1, NOD2, cIAP2/MALT, XIAP/TAB, using 0.2 μL of transfection reagent containing 100 ng DNA per well. Cells were cultured in medium containing CID-2858522 or other compounds and luciferase activity was measured 48 h later. […] Reactions were then initiated by addition of 50 μL 160 nM ATP (Sigma) in PBS and luciferase activity was measured 2 h later using a luminometer (LJL Biosystems, Sunnyvale, Calif.).

[3] = system: XIAP plus TAB induced NF-κB activation; test: NF-κB reporter in 293-NF-κB-luciferase cells transfected with XIAP plus TAB; assay type: cell-based; conditions: CID-2858522 4 μM, IKK inhibitor 10 μM
Procedure: as §1, §2

PKC-theta = target: T1, PKC-theta (Homo sapiens, UniProt Q04759); test: In vitro kinase assay PKC-theta (HTScan kit); assay type: biochemical; conditions: CID-2858522 up to 8 μM; STS 0.5 μM; PKC inhibitor 1 μM
T1 construct: purchased Cell Signaling, Danvers, Mass
Procedure: CID-2858522 (8 μM) were tested in in vitro IKK beta (A), PKC beta […] or PKC theta (C) kinase assays using kits. STS (0.5 μM), IKK inhibitor (10 μM) and PKC inhibitor (1 μM) were used as positive controls.
In Vitro Kinase Assays. PKC-beta, PKC-theta and IKK-beta in vitro kinase assays were performed using the HTScan Kinase Assay Kit (Cell Signaling, Danvers, Mass.) according to manufacturer's protocols. A panel of >300 kinases was screened by Ambit, Inc.

[4] = system: MALT1-caspase-8 interaction; test: PMA-induced MALT1-caspase-8 interaction in HEK293 cells; assay type: cell-based; conditions: HEK293 over-expressing Flag-MALT1 and Caspase-8, PMA
Excerpt: Caspase-8 plays an essential role in antigen receptor-mediated NF-κB activation. It was recently reported that MALT1 interacts with Caspase-8 and activates this protease upon antigen receptor activation. […] We then examined if CID-2858522 affected the pathway at this point. PMA induced significant MALT1-caspase-8 interaction in HEK293 cells over-expressing Flag-MALT1 and Caspase-8. […] The caspase-8 p43/41 processing intermediate was generated in HEK293 cells after PMA/Ion treatment. […] We then assessed the effects of CID-2858522 on PMA-induced proteolytic processing of c-FLIP, a Caspase-8-mediated event recently shown to be required for antigen receptor mediated NF-κB activation.

[5] = system: γ-TriDAP (NOD1 agonist) stimulated IL-8 production; test: IL-8 production by MCF7 cells stimulated with γ-TriDAP; assay type: cell-based; conditions: listed as CID-2858522
Excerpt: FIG. 1 is a flow chart of screening and counter-screenings for selective inhibitors of antigen-receptor induced NF-κB pathway. A total of 114,889 compounds were screened. From a screen of 53,280 commercially available compounds (left column), 519 hits were obtained, of which 248 reconfirmed using the same primary screening assay. […] From these 11 active compounds, one hit, CID-2858522, inhibited PMA/Ionomycin-induced production of cytokine IL-8 by the HEK293 cell line. CID-2858522 was then characterized (right column). PDB was substituted for PMA to confirm suppression of an alternative PKC activator. Pathway selectivity was assessed using panels of cell lines, starting with HEK293 cells in which each of the remaining NF-κB activation pathways was stimulated, showing inhibition only of PMA/Ionomycin-induced NF-κB reporter gene activity (panel 1). […]

T1 sequence (Q04759 whole entry): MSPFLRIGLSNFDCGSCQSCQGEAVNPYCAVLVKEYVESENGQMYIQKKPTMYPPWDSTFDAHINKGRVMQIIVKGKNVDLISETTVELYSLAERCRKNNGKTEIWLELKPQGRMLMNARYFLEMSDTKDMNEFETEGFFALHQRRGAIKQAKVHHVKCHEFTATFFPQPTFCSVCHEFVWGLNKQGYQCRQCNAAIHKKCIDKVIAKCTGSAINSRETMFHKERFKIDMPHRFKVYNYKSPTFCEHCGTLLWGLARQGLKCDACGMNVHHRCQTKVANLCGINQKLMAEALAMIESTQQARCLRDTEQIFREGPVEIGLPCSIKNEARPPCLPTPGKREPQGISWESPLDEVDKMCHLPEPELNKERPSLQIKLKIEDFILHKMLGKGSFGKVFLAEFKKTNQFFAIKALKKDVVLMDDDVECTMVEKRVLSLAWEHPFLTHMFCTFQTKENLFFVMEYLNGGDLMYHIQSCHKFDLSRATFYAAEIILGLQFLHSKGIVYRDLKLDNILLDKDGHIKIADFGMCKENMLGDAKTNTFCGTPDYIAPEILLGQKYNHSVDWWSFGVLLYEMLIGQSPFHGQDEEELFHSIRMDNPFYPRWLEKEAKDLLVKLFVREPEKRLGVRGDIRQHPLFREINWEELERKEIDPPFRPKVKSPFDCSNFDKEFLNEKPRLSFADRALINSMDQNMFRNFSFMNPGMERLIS

SMILES | suppression of TLR4 (CD4-TLR4) induced NF-κB reporter [1] | suppression of cIAP2/MALT-driven NF-κB activation [2] | suppression of XIAP plus TAB-driven NF-κB activation [3] | inhibition of PKC-theta kinase activity (PKC-theta) | inhibition of MALT1-caspase-8 interaction [4] | suppression of cIAP2/MALT-driven NF-κB activation ([2]; listed as CID-288522) | suppression of XIAP plus TAB-driven NF-κB activation ([3]; listed as CID-288522) | suppression of IL-8 production, γ-TriDAP-stimulated MCF7 [5]
Cc1ccc2nc(NCCN)c3ncc(C)n3c2c1 [BMS-345541, reference compound] | suppressed | effectively suppressed | effectively suppressed | – | – | – | – | –
CN(C)CCCn1cc(C2=C(c3c[nH]c4ccccc34)C(=O)NC2=O)c2ccccc21 [Bisindolylmaleimide I, reference compound] | – | – | – | potent inhibition | inhibited | – | – | –
Cc1cc2nc(NCCCO)n(CC(=O)c3cc(C(C)(C)C)c(O)c(C(C)(C)C)c3)c2cc1C [Compound 1, 2-(2-(3-Hydroxypropylamino)-5,6-dimethyl-1H-benzo[d]imidazol-1-yl)-1-(3,5-di-tert-butyl-4-hydroxyphenyl)ethanone] | did not inhibit; also recorded: not by CID-2858522 | did not inhibit | did not inhibit | failed to suppress | not by CID-2858522 | did not | did not | failed to inhibit; also recorded: did not suppress
